Test results reported in PubChem BioAssay (NCI).
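1) Cells in 96-well plates. 2) Compound, 48 h, 5 concentrations. 3) Linear interpolation between surrounding doses. 4) Unreached endpoint = highest concentration. TGI denotes the concentration required for complete inhibition of growth.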

What was measured:
Experiment in all cases: DTP human tumour cell line panel, 48 h
SR leukemia = tested on: SR leukemia
HCT-15 colon = tested on: HCT-15 colon
SK-MEL-28 melanoma = tested on: SK-MEL-28 melanoma
COLO 205 colon = tested on: COLO 205 colon
ACHN renal = tested on: ACHN renal
LXFL 529 NSCLC = tested on: LXFL 529 NSCLC
NCI-H23 lung = tested on: NCI-H23 lung
U251 CNS = tested on: U251 CNS
MOLT-4 leukemia = tested on: MOLT-4 leukemia
OVCAR-8 ovarian = tested on: OVCAR-8 ovarian
LOX IMVI melanoma = tested on: LOX IMVI melanoma
K-562 leukemia = tested on: K-562 leukemia
HOP-18 NSCLC = tested on: HOP-18 NSCLC
NCI-H226 lung = tested on: NCI-H226 lung
A549 NSCLC = tested on: A549 NSCLC
SW-620 colon = tested on: SW-620 colon
EKVX NSCLC = tested on: EKVX NSCLC
DLD-1 colon = tested on: DLD-1 colon
SF-295 CNS = tested on: SF-295 CNS
DMS 273 small cell lung = tested on: DMS 273 small cell lung
SK-OV-3 ovarian = tested on: SK-OV-3 ovarian
KM20L2 colon = tested on: KM20L2 colon
UACC-62 melanoma = tested on: UACC-62 melanoma
SF-268 CNS = tested on: SF-268 CNS
HCC-2998 colon = tested on: HCC-2998 colon
UO-31 renal = tested on: UO-31 renal
SNB-75 CNS = tested on: SNB-75 CNS
SNB-19 CNS = tested on: SNB-19 CNS
SK-MEL-5 melanoma = tested on: SK-MEL-5 melanoma
IGROV1 ovarian = tested on: IGROV1 ovarian
A498 renal = tested on: A498 renal
OVCAR-5 ovarian = tested on: OVCAR-5 ovarian
M14 melanoma = tested on: M14 melanoma
HT29 colon = tested on: HT29 colon
HCT-116 colon = tested on: HCT-116 colon
CAKI-1 renal = tested on: CAKI-1 renal
786-0 renal = tested on: 786-0 renal
DMS 114 small cell lung = tested on: DMS 114 small cell lung
HOP-62 NSCLC = tested on: HOP-62 NSCLC
SF-539 CNS = tested on: SF-539 CNS
MALME-3M melanoma = tested on: MALME-3M melanoma
SN12C renal = tested on: SN12C renal
M19-MEL melanoma = tested on: M19-MEL melanoma
TK-10 renal = tested on: TK-10 renal
NCI-H522 lung = tested on: NCI-H522 lung
SK-MEL-2 melanoma = tested on: SK-MEL-2 melanoma
HOP-92 NSCLC = tested on: HOP-92 NSCLC
OVCAR-3 ovarian = tested on: OVCAR-3 ovarian
HL-60(TB) leukemia = tested on: HL-60(TB) leukemia
CCRF-CEM leukemia = tested on: CCRF-CEM leukemia
RPMI-8226 leukemia = tested on: RPMI-8226 leukemia
OVCAR-4 ovarian = tested on: OVCAR-4 ovarian
UACC-257 melanoma = tested on: UACC-257 melanoma
SNB-78 CNS = tested on: SNB-78 CNS
PC-3 prostate = tested on: PC-3 prostate
MDA-MB-231 breast = tested on: MDA-MB-231 breast
NCI/ADR-RES ovarian = tested on: NCI/ADR-RES ovarian
BT-549 breast = tested on: BT-549 breast
MCF7 breast = tested on: MCF7 breast
KM12 colon = tested on: KM12 colon
HS 578T breast = tested on: HS 578T breast
XF 498 CNS = tested on: XF 498 CNS
DU-145 prostate = tested on: DU-145 prostate
RXF 393 renal = tested on: RXF 393 renal
NCI-H460 lung = tested on: NCI-H460 lung
T-47D breast = tested on: T-47D breast
MDA-MB-435 = tested on: MDA-MB-435
MDA-N = tested on: MDA-N

Compound: Cc1ccc(C)c(N2C(=O)C(=O)C(c3nc4ccccc4o3)/C(=N\NC(=O)c3ccccc3O)C2=O)c1 (configuration not stated)
- TGI (SR leukemia): 76.2 µM
- TGI (HCT-15 colon): > 100 µM
- TGI (SK-MEL-28 melanoma): > 100 µM
- TGI (COLO 205 colon): 72.2 µM
- TGI (ACHN renal): > 100 µM
- TGI (LXFL 529 NSCLC): > 100 µM
- TGI (NCI-H23 lung): 28.7 µM
- TGI (U251 CNS): > 100 µM
- TGI (MOLT-4 leukemia): 52.6 µM
- TGI (OVCAR-8 ovarian): 76.7 µM
- TGI (LOX IMVI melanoma): > 100 µM
- TGI (K-562 leukemia): 85.6 µM
- TGI (HOP-18 NSCLC): > 100 µM
- TGI (NCI-H226 lung): 88.6 µM
- TGI (A549 NSCLC): > 100 µM
- TGI (SW-620 colon): > 100 µM
- TGI (EKVX NSCLC): > 100 µM
- TGI (DLD-1 colon): > 100 µM
- TGI (SF-295 CNS): > 100 µM
- TGI (DMS 273 small cell lung): 36.1 µM
- TGI (SK-OV-3 ovarian): > 100 µM
- TGI (KM20L2 colon): > 100 µM
- TGI (UACC-62 melanoma): 84.4 µM
- TGI (SF-268 CNS): > 100 µM
- TGI (HCC-2998 colon): > 100 µM
- TGI (UO-31 renal): 87.6 µM
- TGI (SNB-75 CNS): > 100 µM
- TGI (SNB-19 CNS): > 100 µM
- TGI (SK-MEL-5 melanoma): > 100 µM
- TGI (IGROV1 ovarian): > 100 µM
- TGI (A498 renal): 76.8 µM
- TGI (OVCAR-5 ovarian): > 100 µM
- TGI (M14 melanoma): > 100 µM
- TGI (HT29 colon): > 100 µM
- TGI (HCT-116 colon): 63.6 µM
- TGI (CAKI-1 renal): 18.5 µM
- TGI (786-0 renal): > 100 µM
- TGI (DMS 114 small cell lung): 71.3 µM
- TGI (HOP-62 NSCLC): > 100 µM
- TGI (SF-539 CNS): 65.2 µM
- TGI (MALME-3M melanoma): > 100 µM
- TGI (SN12C renal): > 100 µM
- TGI (M19-MEL melanoma): > 100 µM
- TGI (TK-10 renal): > 100 µM
- TGI (NCI-H522 lung): 54 µM
- TGI (SK-MEL-2 melanoma): > 100 µM
- TGI (HOP-92 NSCLC): > 100 µM
- TGI (OVCAR-3 ovarian): 63 µM
- TGI (HL-60(TB) leukemia): 31.2 µM
- TGI (CCRF-CEM leukemia): 42.1 µM
- TGI (RPMI-8226 leukemia): 77.8 µM
- TGI (OVCAR-4 ovarian): 69.6 µM
- TGI (UACC-257 melanoma): > 100 µM
- TGI (SNB-78 CNS): > 100 µM

Compound: CC(=O)O[C@@]12CO[C@@H]1CC(O)[C@@]1(C)C(=O)[C@H](O)C3=C(C)C(O)C[C@@](O)(C(OC(=O)c4ccccc4)C12)C3(C)C (some centres not stated)
- TGI (SR leukemia): > 100 µM
- TGI (HCT-15 colon): > 100 µM
- TGI (COLO 205 colon): 6.72 µM
- TGI (PC-3 prostate): > 100 µM
- TGI (ACHN renal): > 100 µM
- TGI (MDA-MB-231 breast): 66 µM
- TGI (NCI-H23 lung): > 41.9 µM
- TGI (U251 CNS): 18.1 µM
- TGI (MOLT-4 leukemia): > 31.6 µM
- TGI (OVCAR-8 ovarian): > 74.9 µM
- TGI (LOX IMVI melanoma): > 100 µM
- TGI (K-562 leukemia): > 100 µM
- TGI (NCI/ADR-RES ovarian): > 100 µM
- TGI (NCI-H226 lung): > 100 µM
- TGI (A549 NSCLC): > 100 µM
- TGI (BT-549 breast): > 100 µM
- TGI (SW-620 colon): > 100 µM
- TGI (EKVX NSCLC): > 100 µM
- TGI (SF-295 CNS): > 51.1 µM
- TGI (KM20L2 colon): 3.31 µM
- TGI (UACC-62 melanoma): 3.7 µM
- TGI (MCF7 breast): > 100 µM
- TGI (SF-268 CNS): > 100 µM
- TGI (HCC-2998 colon): 21.6 µM
- TGI (KM12 colon): > 89.2 µM
- TGI (HS 578T breast): 1.18 µM
- TGI (UO-31 renal): > 100 µM
- TGI (SNB-75 CNS): 5.7 µM
- TGI (XF 498 CNS): > 100 µM
- TGI (DU-145 prostate): > 100 µM
- TGI (SNB-19 CNS): > 100 µM
- TGI (SK-MEL-5 melanoma): > 100 µM
- TGI (IGROV1 ovarian): > 100 µM
- TGI (RXF 393 renal): > 100 µM
- TGI (A498 renal): > 100 µM
- TGI (OVCAR-5 ovarian): > 29.1 µM
- TGI (M14 melanoma): > 48.5 µM
- TGI (HT29 colon): 23.8 µM
- TGI (NCI-H460 lung): > 100 µM
- TGI (HCT-116 colon): 19.2 µM
- TGI (CAKI-1 renal): > 100 µM
- TGI (786-0 renal): > 100 µM
- TGI (T-47D breast): > 100 µM
- TGI (HOP-62 NSCLC): > 100 µM
- TGI (SF-539 CNS): 2.16 µM
- TGI (MALME-3M melanoma): > 100 µM
- TGI (SN12C renal): > 100 µM
- TGI (MDA-MB-435): 0.413 µM
- TGI (M19-MEL melanoma): > 100 µM
- TGI (TK-10 renal): > 100 µM
- TGI (HOP-92 NSCLC): > 100 µM
- TGI (HL-60(TB) leukemia): > 100 µM
- TGI (CCRF-CEM leukemia): > 100 µM
- TGI (RPMI-8226 leukemia): > 100 µM
- TGI (OVCAR-4 ovarian): > 100 µM
- TGI (UACC-257 melanoma): > 26.8 µM
- TGI (SNB-78 CNS): > 100 µM

Compound: Cc1c2ccc3ccccc3c2c[n+]2ccccc12
- TGI (SR leukemia): 53.5 µM
- TGI (HCT-15 colon): > 100 µM
- TGI (SK-MEL-28 melanoma): 28.7 µM
- TGI (COLO 205 colon): 16.5 µM
- TGI (PC-3 prostate): > 100 µM
- TGI (ACHN renal): > 100 µM
- TGI (LXFL 529 NSCLC): 24.2 µM
- TGI (MDA-MB-231 breast): > 82.3 µM
- TGI (NCI-H23 lung): 15.3 µM
- TGI (U251 CNS): 15.6 µM
- TGI (MOLT-4 leukemia): 48.7 µM
- TGI (OVCAR-8 ovarian): 39.6 µM
- TGI (LOX IMVI melanoma): > 78.4 µM
- TGI (K-562 leukemia): 54.6 µM
- TGI (NCI/ADR-RES ovarian): > 100 µM
- TGI (NCI-H226 lung): 20.1 µM
- TGI (A549 NSCLC): > 100 µM
- TGI (BT-549 breast): 14.3 µM
- TGI (SW-620 colon): 80.5 µM
- TGI (EKVX NSCLC): > 44.1 µM
- TGI (DLD-1 colon): > 100 µM
- TGI (SF-295 CNS): 24.8 µM
- TGI (DMS 273 small cell lung): > 50.2 µM
- TGI (SK-OV-3 ovarian): 83.2 µM
- TGI (KM20L2 colon): > 64.1 µM
- TGI (UACC-62 melanoma): 33.9 µM
- TGI (MCF7 breast): > 87.3 µM
- TGI (SF-268 CNS): 6.92 µM
- TGI (HCC-2998 colon): 17.7 µM
- TGI (KM12 colon): 12 µM
- TGI (HS 578T breast): 14.9 µM
- TGI (UO-31 renal): 60.6 µM
- TGI (SNB-75 CNS): 14.3 µM
- TGI (DU-145 prostate): > 76 µM
- TGI (SNB-19 CNS): 23.1 µM
- TGI (SK-MEL-5 melanoma): 21.9 µM
- TGI (IGROV1 ovarian): > 100 µM
- TGI (RXF 393 renal): > 84.4 µM
- TGI (A498 renal): > 94.4 µM
- TGI (OVCAR-5 ovarian): > 100 µM
- TGI (M14 melanoma): 37.5 µM
- TGI (HT29 colon): > 100 µM
- TGI (NCI-H460 lung): 40.2 µM
- TGI (HCT-116 colon): > 83.3 µM
- TGI (CAKI-1 renal): > 100 µM
- TGI (786-0 renal): 25.8 µM
- TGI (DMS 114 small cell lung): 20.7 µM
- TGI (T-47D breast): 5.09 µM
- TGI (HOP-62 NSCLC): 45.7 µM
- TGI (SF-539 CNS): 43.4 µM
- TGI (MALME-3M melanoma): 3.77 µM
- TGI (SN12C renal): 13.4 µM
- TGI (MDA-MB-435): 35.2 µM
- TGI (M19-MEL melanoma): 15.9 µM
- TGI (TK-10 renal): > 100 µM
- TGI (NCI-H522 lung): 14.7 µM
- TGI (SK-MEL-2 melanoma): 31 µM
- TGI (HOP-92 NSCLC): 60.8 µM
- TGI (OVCAR-3 ovarian): 35.4 µM
- TGI (HL-60(TB) leukemia): > 75.6 µM
- TGI (CCRF-CEM leukemia): 37.2 µM
- TGI (RPMI-8226 leukemia): 66.2 µM
- TGI (OVCAR-4 ovarian): 38.8 µM
- TGI (UACC-257 melanoma): 23.8 µM
- TGI (SNB-78 CNS): > 100 µM
- TGI (MDA-N): 19.8 µM
